Test [1] concerns the target T1, human PPAR-alpha receptor (Homo sapiens, UniProt Q07869).
T1 construct: expressed in transfected cells; host or cells: MCF-7 human breast cancer cells, pSG5 expression vector
Put plainly: Cell transfection and luciferase reporter gene assay, PPAR-alpha activation in MCF-7 cells. Conditions: luciferase reporter, 16 h treatment. It counts as cell-based. The procedure:
(§1) The reporter gene assay is an in vitro method used to determine and quantify the existence of physical interactions between proteins, useful for confirming in this case the interaction of the transcription factors PPAR-alpha with co-activator SRC-1, and PPAR-gamma with PPRE in MCF-7 cells.
(§2) For the in vitro experiments, with cell culture all the compounds were dissolved and diluted in dimethylsulfoxide (DMSO) (Sigma Aldrich Spain).
(§3) DNA constructs: Eukaryotic pSG5 expression vector (4100 base pairs, Stratagene Co.) was used as the cDNA expression vehicle for human PPAR-alpha receptor and PPAR-gamma receptor. This construction was used for the in vivo overexpression of the protein in mammalian cells.
(§4) Four copies of the human CPTI gene DR1-type RE (sequence […]) (Ref: Tinahones F J, Moreno-Santos I, Vendrell J, Chacon M R, Garrido-Sanchez L, Garcia-Wasntes E, and Macias-Gonzalez M. Obesity 2012, 20: 488-497) were individually fused with the thymidine kinase promoter in the pGL-2 Basic vector (5598 base pairs, Promega Co.), which lacks a eukaryotic promoter and contains a firefly (Photinus pyralis) luciferase reporter gene. This vector is widely used in the quantitative analysis of factors capable of regulating gene expression in mammalian cells. This pGL-2 Basic vector also has an ampicillin resistance region (gene for β-lactamase). […]

Test [2] concerns the target T2, human PPAR-gamma receptor (Homo sapiens, UniProt P37231).
T2 construct: expressed in transfected cells; host or cells: MCF-7 human breast cancer cells, pSG5 expression vector
T2 sequence (P37231 1-505): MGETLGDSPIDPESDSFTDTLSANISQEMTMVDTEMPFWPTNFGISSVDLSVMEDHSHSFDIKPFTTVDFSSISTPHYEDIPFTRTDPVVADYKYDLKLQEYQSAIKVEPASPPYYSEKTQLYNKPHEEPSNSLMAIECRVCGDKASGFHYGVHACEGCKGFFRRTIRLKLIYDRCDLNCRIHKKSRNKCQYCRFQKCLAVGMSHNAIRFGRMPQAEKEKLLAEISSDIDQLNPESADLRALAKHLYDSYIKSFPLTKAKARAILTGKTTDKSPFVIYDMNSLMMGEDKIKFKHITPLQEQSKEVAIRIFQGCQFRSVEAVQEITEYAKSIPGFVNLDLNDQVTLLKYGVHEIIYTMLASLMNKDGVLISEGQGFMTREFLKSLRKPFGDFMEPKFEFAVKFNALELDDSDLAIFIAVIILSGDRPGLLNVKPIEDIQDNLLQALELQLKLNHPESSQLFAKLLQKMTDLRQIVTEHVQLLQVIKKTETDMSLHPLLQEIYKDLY
The test can be described thus: Cell transfection and luciferase reporter gene assay, PPAR-gamma activation in MCF-7 cells. In kind it is cell-based. Conditions: luciferase reporter, 16 h treatment. How it is done:
as §1, §2, §3, §4
For orientation: In a reporter assay the amount or activity of a reporter protein is the signal.

In the next test the test system is Male Wistar albino rats. Put plainly: In vivo assay on food ingestion, acute treatment. On the set-up: species or system Rattus Norvegicus. To be noted: for course of the effect on food ingestion over time (30-240 min) / reduction of food ingestion: rats fasted 24 h. The procedure: Male Wistar albino rats (Rattus Norvegicus) from Charles Rivers Laboratories España, S. A. (Barcelona, Spain), were used, having weights ranging between 300-350 g at the start of the experiments. The animals were caged individually, in controlled temperature (22° C.) and moisture (55%) conditions under a 12-hour light/dark cycle (light off from 8:00 AM to 8:00 PM). The rats had free access to food and water in their corresponding cages. All the training and experimental sessions were carried out after 8:00 PM hours.
All the drugs were prepared in fresh conditions in a solution consisting of 5% Tween-80 in sterile physiological serum. The different doses were prepared in different vials such that Tween-80 was added after weighing the necessary amount of compound. The compound, with its corresponding volume of surfactant, was sonicated and homogenized (with the aid of a magnetic stirrer) for 15-30 minutes. Then, the necessary volume of serum was added until completing the solution.
The compounds were administered intraperitoneally (i.p.) in an acute manner in an administration volume of 1 ml per kg of animal.
Before starting the ingestion experiments, the animals were habituated to being handled. For this purpose, 48-72 hours before each experimental session, the rats were placed in cages where the base material (sawdust) was removed, and small containers with food were placed in the cages for 4 hours. After this initial habituation phase, the animals were deprived of food for 24 hours, always having free access to water.
After said fasting period, the different treatment groups were established, and the base material was removed from the cages, weighing the animals and weighing the small containers with food (commercial laboratory feed). Additionally, the water container was weighed. 15 minutes after administering the compounds, the respective weighed food container was given to each animal, and it was again weighed at different times (30, 60, 120 and 240 minutes). In one case it was weighed 24 hours after being given.
Food consumption was represented as relative accumulated consumption (g of food per kg of animal). The water containers were also weighed at the end of the experiment.

One may read the EC50 as the concentration needed to bring the measured effect to its halfway point. Low values mean a more potent agent, high ones a less potent agent.

T1 sequence (Q07869 whole entry): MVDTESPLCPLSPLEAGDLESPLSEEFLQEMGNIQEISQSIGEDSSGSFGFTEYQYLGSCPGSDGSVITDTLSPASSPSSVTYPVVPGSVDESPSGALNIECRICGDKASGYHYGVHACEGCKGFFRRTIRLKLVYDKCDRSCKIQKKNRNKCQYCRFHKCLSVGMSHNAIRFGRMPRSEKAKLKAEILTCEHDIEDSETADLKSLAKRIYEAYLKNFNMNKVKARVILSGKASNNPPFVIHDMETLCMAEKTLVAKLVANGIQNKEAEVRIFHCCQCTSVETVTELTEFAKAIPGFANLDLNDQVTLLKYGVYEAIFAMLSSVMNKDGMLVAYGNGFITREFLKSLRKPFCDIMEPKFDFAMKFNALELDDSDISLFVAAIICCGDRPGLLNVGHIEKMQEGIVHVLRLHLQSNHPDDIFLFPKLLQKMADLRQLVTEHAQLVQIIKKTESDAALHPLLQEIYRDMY
T1 sequence (P19793 whole entry partner): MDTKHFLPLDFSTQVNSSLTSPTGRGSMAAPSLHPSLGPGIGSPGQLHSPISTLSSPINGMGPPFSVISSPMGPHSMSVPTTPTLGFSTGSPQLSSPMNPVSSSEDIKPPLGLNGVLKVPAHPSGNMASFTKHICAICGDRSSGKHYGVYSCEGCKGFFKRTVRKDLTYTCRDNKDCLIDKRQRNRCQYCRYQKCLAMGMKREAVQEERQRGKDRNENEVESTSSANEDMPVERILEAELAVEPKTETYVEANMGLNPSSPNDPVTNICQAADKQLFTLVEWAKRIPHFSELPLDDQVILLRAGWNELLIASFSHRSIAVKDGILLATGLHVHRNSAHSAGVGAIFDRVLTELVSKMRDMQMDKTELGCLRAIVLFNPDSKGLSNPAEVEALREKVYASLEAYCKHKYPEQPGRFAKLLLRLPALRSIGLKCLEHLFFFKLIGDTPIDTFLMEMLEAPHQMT
T1 sequence (Q15788 whole entry partner): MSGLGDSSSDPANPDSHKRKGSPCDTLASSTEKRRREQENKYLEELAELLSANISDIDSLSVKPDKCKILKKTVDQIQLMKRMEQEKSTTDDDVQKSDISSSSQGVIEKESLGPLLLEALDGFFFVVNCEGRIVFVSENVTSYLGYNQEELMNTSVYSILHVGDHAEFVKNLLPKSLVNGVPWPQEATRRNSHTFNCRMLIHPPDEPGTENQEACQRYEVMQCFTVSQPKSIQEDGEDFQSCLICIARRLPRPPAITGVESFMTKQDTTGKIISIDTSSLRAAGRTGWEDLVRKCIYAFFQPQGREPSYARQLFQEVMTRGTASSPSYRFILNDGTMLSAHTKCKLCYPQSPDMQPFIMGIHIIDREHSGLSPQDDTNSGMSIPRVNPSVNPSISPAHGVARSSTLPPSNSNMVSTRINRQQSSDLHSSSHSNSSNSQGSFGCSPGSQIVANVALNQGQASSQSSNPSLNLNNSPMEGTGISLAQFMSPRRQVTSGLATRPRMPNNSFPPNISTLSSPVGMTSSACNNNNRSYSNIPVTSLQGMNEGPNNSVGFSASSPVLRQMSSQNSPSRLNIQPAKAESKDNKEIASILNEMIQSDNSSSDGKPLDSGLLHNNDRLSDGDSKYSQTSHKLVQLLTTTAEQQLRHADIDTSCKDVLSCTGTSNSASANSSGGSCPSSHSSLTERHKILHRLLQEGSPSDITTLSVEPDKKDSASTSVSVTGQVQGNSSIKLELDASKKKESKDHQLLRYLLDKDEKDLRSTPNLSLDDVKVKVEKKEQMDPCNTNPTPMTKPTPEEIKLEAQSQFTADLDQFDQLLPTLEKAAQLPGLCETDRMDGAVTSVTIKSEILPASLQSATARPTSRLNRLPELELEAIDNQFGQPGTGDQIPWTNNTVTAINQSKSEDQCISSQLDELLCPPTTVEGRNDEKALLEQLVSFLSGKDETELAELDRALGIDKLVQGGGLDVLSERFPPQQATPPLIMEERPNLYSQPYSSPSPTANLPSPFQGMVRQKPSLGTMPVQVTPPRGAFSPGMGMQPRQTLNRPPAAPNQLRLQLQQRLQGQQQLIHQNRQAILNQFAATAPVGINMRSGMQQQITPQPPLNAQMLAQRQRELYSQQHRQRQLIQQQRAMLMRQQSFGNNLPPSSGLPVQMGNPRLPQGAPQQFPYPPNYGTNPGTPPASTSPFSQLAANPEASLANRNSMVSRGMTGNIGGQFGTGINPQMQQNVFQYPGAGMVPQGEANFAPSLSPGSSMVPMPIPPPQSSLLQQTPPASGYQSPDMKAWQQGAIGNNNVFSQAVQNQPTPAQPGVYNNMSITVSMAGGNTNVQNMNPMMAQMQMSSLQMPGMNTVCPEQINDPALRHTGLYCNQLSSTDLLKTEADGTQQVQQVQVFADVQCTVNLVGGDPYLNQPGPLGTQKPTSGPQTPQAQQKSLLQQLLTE

For the molecule `CC(C)(C)c1ccc(CNC(=O)c2ccc(NC(=O)c3cccc(CN4C(=O)OC[C@H]4Cc4ccccc4)c3)cc2)cc1` [Compound 1, (R)-3-((4-benzyl-2-oxooxazolidin-3-yl)methyl)-N-(4-((4-(tert-butyl)benzyl)carbamoyl)phenyl)benzamide], the EC50 was 670 ± 157 nM in test [1] and 1290 nM in test [2]. For the same molecule, the “course of the effect on food ingestion over time (30-240 min)” value in the test with Male Wistar albino rats (acute i.p. administration) was “effect disappearing 240 minutes after the administration”. Also, the “reduction of food ingestion” value with Male Wistar albino rats (effective dose 3.0 mg/kg i.p., FIG. 1) is reported as “about 50%”.

For `CCCCCNC(=O)c1ccc(NC(=O)c2cccc(CN3C(=O)OC[C@H]3Cc3ccccc3)c2)cc1` [Compound 5, (R)-3-((4-benzyl-2-oxooxazolidin-3-yl)methyl)-N-(4-(pentylcarbamoyl)phenyl)benzamide], the results for the half-maximal effective concentration (EC50) in test [1] and in test [2] were 821 ± 139 nM and 1620 nM, respectively. The “effect on accumulated food ingestion 24 hours after administration” value in the test with Male Wistar albino rats (24 h after i.p. administration, FIG. 3) is “still has an effect 24 hours after administration”. In addition, in the test with Male Wistar albino rats (acute i.p. administration, FIG. 2), the “dose dependence of the effect on food ingestion” value is “active in a dose-dependent manner”. In addition, in the test on Male Wistar albino rats (acute i.p. administration), the “course of the effect on food ingestion over time (30-240 min)” value is recorded as “effect maintained over time after 240 minutes”. Besides, the “reduction of food ingestion” value with Male Wistar albino rats (effective dose 1.0 mg/kg i.p., FIG. 2) was “about 50%”.

(Values after patent US20160152579A1, “OXAZOLIDINONE DERIVATIVES AS PPAR LIGANDS” (CONSEJO SUPERIOR DE INVESTIGACIONES CIENTÍFICAS (CSIC), priority 2013, published 2016).)
